row,Structure (SMILES),melting point [°C]
1,CCN(CC)C(=O)c1c(C(F)F)ccc(F)c1[Si](C)(C)C,65 to 67
2,O=C(C=Cc1ccc(F)c(F)c1)OCCc1ccccc1,53 to 57
3,NC(=O)CNC(=O)c1cccc(-c2cccc3oc(Cc4cc(F)cc(Cl)c4)cc23)c1,156 to 157
4,COC(=O)CCNC1(C)CCN(c2ncc3ncnc(Nc4ccc(F)c(Cl)c4)c3n2)CC1,134 to 135
5,N#Cc1ccc(N(c2ccccc2)n2ccnc2)cc1,162
6,CC(C)(C)OC(=O)N1C[C@H](Oc2nccc(NC(=O)c3ccccc3)n2)C[C@@H]1C(=O)OC(c1ccccc1)c1ccccc1,145 to 147
7,Cc1oc(-c2ccccc2)nc1CC=Cc1ccc(CCCC2OC(=O)NC2=O)cc1 (stereo not given),136 to 137
8,CC(C)(C)OC(=O)NCCc1cccc(OCCC2Oc3ccccc3N(Cc3ccc(Cl)cc3)C2=O)c1 (stereo not given),97 to 98.5
9,Cc1nc(C=Cc2nc3ccc(F)cc3c(=O)n2-c2cccnc2C)cs1,223 to 224
10,Cn1c(C(F)(F)F)ccc(-c2c(F)cc(Cl)c3oc(CBr)cc23)c1=O,142 to 144
11,Cc1nc(-c2ccc(C(F)(F)F)cc2)oc1COc1ccc(CC(=O)O)cc1Cl,189 to 191
12,CN(C)CCNC(=O)Cn1c(-c2ccc(Cl)cc2)nc2cccnc21,195 to 196
13,COC(=O)c1ccc(Cl)cc1NC(=O)CSc1ccccc1C,88 to 89
14,Cc1cc(N2CCN(CC3CC3)C2=O)sc1C(=O)NCc1cccnc1,157 to 159
15,CCOP(=O)(CCc1ccnc(-c2nc(=O)c3ccc(Cl)cc3s2)c1)OCC,138 to 139
16,Cn1ncnc1COc1nc2c(cc1-c1ccccc1)nnn2-c1ccccc1F,144 to 146
17,CC(C)(C)c1cc2ncnn2nc1OCCN1CCC(OC(c2ccccc2)c2ccccc2)CC1,133 to 135
18,COc1ccc(-c2cncn2-c2ccc(S(=O)(=O)NC(C)(C)C)cc2)cc1F,229 to 232
19,Cn1nccc1COc1nn2c(-c3ccccc3F)nnc2cc1C1CCC1,184 to 186
20,COc1cc(OC)nc(NC(=O)NS(=O)(=O)c2ccccc2-c2ccno2)n1,183 to 187
21,CNc1nc(N)nc2c1nnn2Cc1ccccc1F,252 to 254
22,Cc1cc(Cl)n2nc(SCc3ccccc3)nc2c1,108 to 110
23,CCCNC(=O)CCCc1ccc2c(c1)c(Cc1ccc(C(=O)NS(=O)(=O)c3ccccc3C)cc1OC)cn2CCC,94 to 95
24,COCCCCC(=O)c1ccc([N+](=O)[O-])c(Cl)c1,54.5 to 56
25,CCOC(=O)C1=C(C)NC(C)=C(C(=O)OCCOC)C1c1cccc(Cl)c1Cl (stereo not given),139

row,Structure (SMILES),melting point [°C]
1,Cc1ccccc1C(CCC(=O)O)Oc1cc(OCc2cccnc2)ccc1C(=O)c1ccccc1 (stereo not given),185 to 186
2,Cc1c2c3c(ccc2nn1C)CCC3=CC#N,200 to 203
3,O=C(CNC(=O)c1ccc([N+](=O)[O-])c(I)c1)OCc1ccccc1,98 to 100
4,Cc1ccc2c(cc(C(=O)O)n2CCCC#N)c1C,175
5,Nc1ccccc1NC(=O)c1cc2cc(OCc3ccccn3)ccc2s1,205 to 207
6,CS(=O)(=O)c1ccc(-c2ccc3cnc(Nc4ccc(N5CCOCC5)nc4)nn23)cc1,171 to 177
7,CC(=O)CN1CCc2c(c(=O)oc3cc(C)c([N+](=O)[O-])cc23)C1,166 to 168
8,COc1cccc(-c2cnc3[nH]cc(C(=O)C4(C)CCCCC4)c3n2)c1,173 to 175
9,O=C(Cl)c1c(Oc2ccccc2)cccc1Oc1ccccc1,72 to 73
10,O=C1C(c2c[nH]c3ncccc23)=C(c2cn(S(=O)(=O)c3ccccc3)c3ccccc23)C(=O)N1COCc1ccccc1,94 to 96
11,O=C1c2ccccc2C(=O)N1c1ccccc1CSc1nccn1-c1ccncc1,145 to 147
12,O=C1CCC(CCN2CCN(c3ccccn3)CC2)CC1,104 to 106
13,CCOC(=O)C1CNc2cc(NS(C)(=O)=O)ccc2O1 (stereo not given),149 to 151
14,CC12CCC(=O)C=C1CCC1C3CC(OCCO)C(O)(C(=O)CO)C3(C)CC(O)C12F (stereo not given),162 to 165
15,Cc1cc(C)cc(NC(=O)[C@@H](C)N)c1,134 to 136
16,N#Cc1ccc(N(Cc2ccc(O)c(Cl)c2)n2cnnc2)cc1-c1ccoc1,192 to 193
17,COC(=O)c1cccc(-c2nc(CO)cs2)c1,115 to 117
18,Cc1cc(NC(C)(C)C)nc(NC(C)(C)C)c1C#N,134 to 138
19,CCC1(CC)c2cc(C(=O)O)c(C(=O)O)cc2C(CC)(CC)N1C(=O)c1ccccc1,244 to 246
20,O=c1ccn(C2CC(O)C(CNC(c3ccccc3)(c3ccccc3)c3ccccc3)O2)c(=O)[nH]1 (stereo not given),132 to 134
21,O=C(On1nnc2ccccc21)c1ccccc1,75 to 78.5
22,O=C1NCc2c1ccc(Nc1ccccc1)c2Nc1ccccc1,225
23,CC(=O)Nc1ccc2cccc(N3CCN(C)CC3)c2c1,173 to 177
24,Fc1ccc2nc(-c3ccccc3)cc(Cl)c2c1,96 to 99
25,NC(=O)N(O)[C@@H]1COc2cc(OCc3ccccc3)ccc21,192 to 193

# Source: a melting point compilation (Tetko et al.; mined from patent text by program, amines drawn as free bases though some values may be those of a salt)
